Measurements published in ChEMBL document CHEMBL3046296, “Development of a New Herbicide, Indanofan” (J Pestic Sci, 2004).

What was measured:
[1] = system: Zoysia matrella; assay: Pre-emergence herbicide activity against Zoysia matrella measured 7 days after planting; assay type: functional
[2] = system: Poa annua; assay: Pre-emergence herbicide activity against Poa annua up to two-leaf stage; assay type: functional
[3] = system: Echinochloa oryzicola; assay: Pre-emergence herbicide activity against Echinochloa oryzicola after 42 days; assay type: functional
[4] = system: Echinochloa crus-galli; assay: Pre-emergence herbicide activity against Echinochloa crus-galli (barnyard grass) up to 3-leaf stage; assay type: functional
[5] = system: Echinochloa oryzicola; assay: Pre-emergence herbicide activity against Echinochloa oryzicola up to three-leaf stage; assay type: functional
[6] = Octanol-water partition co-efficient, log P of the compound in water at 25 degC; assay type: physicochemical

CCC1(CC2(c3cccc(Cl)c3)CO2)C(=O)c2ccccc2C1=O (stereo not drawn) [(RS)-INDANOFAN]
Activity [1]: 1 KgAi/ha
Activity [2]: 0.5 KgAi/ha
Activity [3]: 0.15 KgAi/ha
Activity [4]: 0.15 KgAi/ha
Activity [5]: 0.15 KgAi/ha
logP [6]: 3.59
